Experimental data taken from patent publication US10913750B2, “Tubulin-binding compounds, compositions and uses related thereto” (The Regents of the University of California, priority 2015, dated 2021).
pIC50: −log10 of the molar value.

How the values were obtained:
[1] = tested on: patient-derived glioblastoma cells (HK-309); assay: CellTiter-Glo cell viability, patient-derived glioblastoma cells; type: cell-based; details: HK-309, 72 hours
Experimental: (§1) The cell viability IC50 of each compound was determined using Promega CellTiter-Glo Luminescent Cell Viability Assay kit by measuring the total ATP levels to quantify the number of metabolically active cells upon drug treatment as described in Crouch et al., J Immunol Methods 1993, 160, (1), 81-8. Briefly, the compounds were suspended in DMSO at 10 mM and diluted in 384 plates (20 μl/well in DMSO) in triplicate by a 14-point titration (12 nM to 100 μM). 50 μl of HeLa cells or patient derived glioblastoma cells (HK-309) (2000 cells/well) were then treated with the prepared dilutions of the drugs (0.5 μl) and incubated at 37° C. and 5% CO2. 72 hours later 50 μl of CellTiter-Glo reagent was added to each well followed by a 2 minutes shaking and a 10-minute incubation to lyse the cells. The relative luminescent intensity units (RLU) of each well was measured using a Tecan M1000 microplate reader (Tecan Group Ltd.) with its green filter and 1 second integration time.
(§2) Cells used in Example 2 and other examples disclosed herein were cultured as follows: Adherent HeLa cells and patient derived glioblastoma cells were grown with 5% CO2 at 37° C. in F12:DMEM 50:50 medium (Invitrogen) containing 10% FBS and 1% penicillin/streptomycin. To obtain HeLa cells synchronized in mitosis, cycling cells were treated with 2 mM thymidine (Sigma-Aldrich) for eighteen hours, washed three times with PBS, and released into fresh media until they entered mitosis eight hours post-release. Patient-derived glioblastoma cells (HK-309) were collected and grown with approval from the UCLA Institutional Review Board. HK-309 was derived from a recurrent glioblastoma taken from a person. The cells were initially propagated as cancer stem cell-containing spheres in serum-free medium containing basic fibroblast growth factor and epidermal growth factor (Preprotech) as described previously by Visnyei et al., Mol Cancer Ther 2011, 10, (10), 1818-28.

HeLa cells [2] = assay: CellTiter-Glo cell viability, HeLa cells; type: cell-based; details: Homo sapiens; HeLa cells, 72 hours, CellTiter-Glo
Experimental: as §1, §2
For mitotic arrest IC50s, cells were treated with a twenty-point-2-fold-titration (190 pM to 10 μM) of each compound tested for 20 hours. For cell viability IC50s, cells were treated with a fourteen-point-2-fold-titration (12.2 nM to 100 μM). Mitotic arrest IC50 was determined by measuring the percent G2/M arrest using the Vybrant DyeCycle Green (Invitrogen) assay described above. Cell viability IC50 was determined using the CellTiter-Glo Assay (Promega), which measures total ATP levels. Plates were read with a Tecan M1000 micro-plate reader at 540 nm. The CDD software was used for generating IC50 and IC90 values.

HeLa cells [3] = assay: Microtubule stability by immunofluorescence microscopy; type: cell-based; details: increasing concentrations, anti-α-tubulin staining
Experimental: Next, microtubule stability was analyzed in HeLa cells treated with increasing concentrations of each of these three compounds by fixing the cells with 4% paraformaldehyde, staining them with Hoechst 33342 (DNA dye) to visualize their DNA and anti-α-tubulin antibodies to visualize microtubule structures and then imaging them by immunofluorescence microscopy.

tubulin = target: T1, tubulin (Sus scrofa, UniProt P02554); assay: In vitro tubulin polymerization assay (HTS-tubulin polymerization kit, Cytoskeleton); type: biochemical; details: 3 μM compound, fluorescence, 70 minutes at 37° C.
T1 construct: purchased Cytoskeleton Inc. BK011P
T1 sequence (P02554 whole entry): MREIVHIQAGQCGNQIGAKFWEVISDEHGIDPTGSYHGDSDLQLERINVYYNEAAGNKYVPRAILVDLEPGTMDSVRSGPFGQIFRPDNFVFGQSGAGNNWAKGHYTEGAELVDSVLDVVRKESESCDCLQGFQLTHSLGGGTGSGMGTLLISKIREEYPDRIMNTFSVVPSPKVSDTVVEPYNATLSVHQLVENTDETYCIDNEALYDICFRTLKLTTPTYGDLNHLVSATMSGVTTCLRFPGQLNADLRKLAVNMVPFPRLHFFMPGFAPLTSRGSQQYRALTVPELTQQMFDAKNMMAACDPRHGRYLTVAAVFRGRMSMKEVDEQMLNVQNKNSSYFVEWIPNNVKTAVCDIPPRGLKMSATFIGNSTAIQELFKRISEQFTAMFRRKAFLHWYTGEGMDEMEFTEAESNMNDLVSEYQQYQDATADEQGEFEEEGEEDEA
T1 sequence (P02550 whole entry partner): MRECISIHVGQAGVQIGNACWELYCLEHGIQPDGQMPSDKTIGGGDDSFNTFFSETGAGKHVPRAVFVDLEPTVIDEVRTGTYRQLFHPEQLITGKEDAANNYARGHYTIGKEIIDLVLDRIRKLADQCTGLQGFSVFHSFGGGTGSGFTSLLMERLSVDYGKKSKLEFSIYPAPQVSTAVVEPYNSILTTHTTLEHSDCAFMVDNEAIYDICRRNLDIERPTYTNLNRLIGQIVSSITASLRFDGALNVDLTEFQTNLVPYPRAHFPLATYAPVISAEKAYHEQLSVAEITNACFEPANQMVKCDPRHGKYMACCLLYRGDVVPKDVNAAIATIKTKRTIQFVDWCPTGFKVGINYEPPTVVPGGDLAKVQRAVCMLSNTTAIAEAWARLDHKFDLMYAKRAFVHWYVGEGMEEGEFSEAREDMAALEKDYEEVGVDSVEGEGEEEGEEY
Experimental: 1.5 ul of 10× strength compound, 20 μl of tubulin solution and Triton X-100 at a final concentration of 0.01% were added to each well in a 384 well plate. The reactions were assembled on ice to prevent tubulin pre-polymerization. For kinetic measurements, microtubule polymerization was monitored by reading the fluorescence at 420 nm (due to the incorporation of a fluorescent reporter into microtubules as polymerization occurs) every ten seconds using a Tecan M1000 microplate reader (FIG. 6B). […] Fluorescence increased as polymerization occurred, due to the incorporation of 4′,6-diamidino-2-phenylindole. Fluorescence was monitored every minute for 70 minutes at 37° C.
Tubulin polymerization reactions were carried out according to the manufacturer (Cytoskeleton, BK011P) in the presence of 3 μM colchicine, MI-181, taxol or DMSO. Polymerization was monitored with a Tecan M1000 micro-plate reader at 420 nm for 70 minutes at 37° C. The results are depicted in FIG. 11.

M308 = assay: Melanoma colony formation, M308; type: cell-based; details: 10 nM, M308 (second value of pair)
Experimental: (§3) To determine if MI-181 had broad anti-cancer activity, we treated a diverse panel of cancer cell lines including cervical adenocarcinoma (HeLa), breast adenocarcinoma (MCF7), melanoma (M233), osteosarcoma (U205), acute lymphoblastic leukemia (CCRF-CEM), non-small cell lung carcinoma (NCI-H460), and breast adenocarcinoma (MCF7) with MI-181 and determined its cell viability IC50 (FIGS. 13A and 13B). […] Therefore, the efficacy of MI-181 was analyzed in a panel of melanoma cell lines with defined genetic backgrounds including BRAF^V600E and NRAS^Q61L mutations and varied sensitivities to Vemurafenib (BRAF inhibitor) and Trametinib (MEK inhibitor), which are currently used to treat BRAF^V600E melanomas^43,44 (FIG. 10c). […] As a general trend BRAF^V600E cell lines were slightly more sensitive than NRAS^Q61L cell lines and MI-181 was effective in Vemurafenib and Trametinib resistant cell lines (FIG. 10c and Table 3). Finally, we tested the ability of MI-181 to inhibit melanoma colony formation using the M233 and M308 cell lines (both resistant to Vemurafenib). Indeed, MI-181 was a potent inhibitor of colony formation (percentage colony formation for 10 nM MI-181=0.2±0.1 and 0.8±0.7; for 10 nM colchicine=0.1±0.06 and 1.5±0.5; and for 10 nM Vemurafenib=94±7 and 102±5) (FIG. 10d). Thus, MI-181 is a potent inhibitor of melanoma cell lines.

M233 = assay: Melanoma colony formation, M233; type: cell-based; details: 10 nM, M233 (first value of pair)
Experimental: as §3

SMILES | pIC50 (HeLa cells [2]) | further results
O=c1[nH]c(/C=C/c2cc(F)ccc2F)nc2sc3c(c12)CCCC3 [Compound 10b, (E)-2-(2,5-difluorostyryl)-5,6,7,8-tetrahydrobenzo[4,5]thieno[2,3-d]pyrimidin-4(3H)-one] | 6.80 | pIC50 [1]: 6.95; microtubule stability in treated cells (HeLa cells [3]): destabilized in a drug dose-dependent manner; inhibition of microtubule (tubulin) polymerization in vitro (tubulin): potent inhibitors of microtubule polymerization similar to colchicine
O=c1[nH]c(/C=C/c2ccc(F)cc2)nc2sc3c(c12)CCCC3 [Compound 10c, (E)-2-(4-fluorostyryl)-5,6,7,8-tetrahydrobenzo[4,5]thieno[2,3-d]pyrimidin-4(3H)-one] | 5.95 | –
COc1ccc(/C=C/c2nc3sc4c(c3c(=O)[nH]2)CCCC4)cc1 [Compound 10h, (E)-2-(4-methoxystyryl)-5,6,7,8-tetrahydrobenzo[4,5]thieno[2,3-d]pyrimidin-4(3H)-one] | 4.29 | –
Cc1ccc(/C=C/c2nc3sc4c(c3c(=O)[nH]2)CCCC4)cc1 [Compound 10m, (E)-2-(4-methylstyryl)-5,6,7,8-tetrahydrobenzo[4,5]thieno[2,3-d]pyrimidin-4(3H)-one] | < 4.00 | –
COc1ccc(/C=C/c2nc3sc4c(c3c(=O)[nH]2)CCCC4)cc1OC [Compound 10k, (E)-2-(3,4-dimethoxystyryl)-5,6,7,8-tetrahydrobenzo[4,5]thieno[2,3-d]pyrimidin-4(3H)-one] | < 4.00 | –
Cc1cccc(/C=C/c2nc3sc4c(c3c(=O)[nH]2)CCCC4)c1 [Compound 10g, (E)-2-(3-methylstyryl)-5,6,7,8-tetrahydrobenzo[4,5]thieno[2,3-d]pyrimidin-4(3H)-one] | < 4.00 | –
COc1cc2c(c(OC)c1OC)-c1ccc(OC)c(=O)cc1[C@@H](NC(C)=O)CC2 [colchicine] | – | percentage colony formation (M308): 1.5±0.5; percentage colony formation (M233): 0.1±0.06
CCOc1ccc(/C=C/c2nc3sc4c(c3c(=O)[nH]2)CCCC4)cc1OC [Compound 10f, (E)-2-(4-ethoxy-3-methoxystyryl)-5,6,7,8-tetrahydrobenzo[4,5]thieno[2,3-d]pyrimidin-4(3H)-one] | 4.59 | –
COc1cccc(/C=C/c2nc3sc4c(c3c(=O)[nH]2)CCCC4)c1 [Compound 10d, (E)-2-(3-methoxystyryl)-5,6,7,8-tetrahydrobenzo[4,5]thieno[2,3-d]pyrimidin-4(3H)-one] | 5.38 | –
O=c1[nH]c(/C=C/c2ccccc2C(F)(F)F)nc2sc3c(c12)CCCC3 [Compound 10u] | < 4.00 | –
CCOc1ccc(/C=C/c2nc3sc4c(c3c(=O)[nH]2)CCCC4)cc1 [Compound 10l, (E)-2-(4-ethoxystyryl)-5,6,7,8-tetrahydrobenzo[4,5]thieno[2,3-d]pyrimidin-4(3H)-one] | < 4.00 | –
O=c1[nH]c(/C=C/c2ccc(F)c(F)c2)nc2sc3c(c12)CCCC3 [Compound 10j, (E)-2-(3,4-difluorostyryl)-5,6,7,8-tetrahydrobenzo[4,5]thieno[2,3-d]pyrimidin-4(3H)-one] | < 4.00 | –
O=c1[nH]c(/C=C/c2ccc(Br)cc2)nc2sc3c(c12)CCCC3 [Compound 10i, (E)-2-(4-bromostyryl)-5,6,7,8-tetrahydrobenzo[4,5]thieno[2,3-d]pyrimidin-4(3H)-one] | < 4.00 | –
CSc1ccc(/C=C/c2nc3sc4c(c3c(=O)[nH]2)CCCC4)cc1 [Compound 10e, (E)-2-(4-methylthiostyryl)-5,6,7,8-tetrahydrobenzo[4,5]thieno[2,3-d]pyrimidin-4(3H)-one] | 5.20 | –
CCCS(=O)(=O)Nc1ccc(F)c(C(=O)c2c[nH]c3ncc(-c4ccc(Cl)cc4)cc23)c1F [Vemurafenib] | – | percentage colony formation (M308): 102±5; percentage colony formation (M233): 94±7
O=c1[nH]c(/C=C/c2ccc(F)cc2F)nc2sc3c(c12)CCCC3 [Compound 10a, (E)-2-(2,4-difluorostyryl)-5,6,7,8-tetrahydrobenzo[4,5]thieno[2,3-d]pyrimidin-4(3H)-one] | 6.61 | pIC50 [1]: 6.55; microtubule stability in treated cells (HeLa cells [3]): destabilized in a drug dose-dependent manner; inhibition of microtubule (tubulin) polymerization in vitro (tubulin): potent inhibitors of microtubule polymerization similar to colchicine
